Calls of active or inactive are those of the source. No cut-off for these calls is given here.
Target: Botulinum neurotoxin type A (Clostridium botulinum, UniProt P0DPI0)
Assay: Inhibition of Clostridium botulinum BoNT/A light chain using SNAPtide as substrate preincubated with enzyme for 2 mins followed by substrate addition and measured for 0-5 mins by FRET assay

Sequence of Botulinum neurotoxin type A (P0DPI0 2-448 limits assumed): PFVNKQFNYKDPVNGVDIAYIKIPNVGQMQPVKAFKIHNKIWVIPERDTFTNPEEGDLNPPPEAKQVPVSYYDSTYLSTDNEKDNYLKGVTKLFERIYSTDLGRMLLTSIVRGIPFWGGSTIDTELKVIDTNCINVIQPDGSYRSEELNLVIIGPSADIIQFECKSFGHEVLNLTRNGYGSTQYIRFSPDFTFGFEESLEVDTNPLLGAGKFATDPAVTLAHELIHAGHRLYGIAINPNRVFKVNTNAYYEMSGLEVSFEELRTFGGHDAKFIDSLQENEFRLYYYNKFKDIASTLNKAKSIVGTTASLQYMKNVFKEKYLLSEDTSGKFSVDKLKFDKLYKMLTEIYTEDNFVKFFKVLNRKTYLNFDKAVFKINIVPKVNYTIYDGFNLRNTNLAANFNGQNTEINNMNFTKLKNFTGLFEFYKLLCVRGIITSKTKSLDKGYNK

Row | Compound | IC50
1 | CC[C@@H](C)[C@@H](NS(=O)(=O)c1cccc(-c2ccccc2Cl)c1)C(=O)NO | 0.587 µM
2 | CC[C@@H](C)[C@@H](NS(=O)(=O)c1cccc(-c2cc3ccccc3o2)c1)C(=O)NO | 14 µM

Target: Botulinum neurotoxin type A (Clostridium botulinum) (UniProt P0DPI0)
Sequence (P0DPI0 2-448 limits assumed): as above
Assay: Inhibition of Clostridium botulinum BoNT/A light chain at 30 uM using SNAPtide as substrate preincubated with enzyme for 2 mins followed by substrate addition and measured for 0-5 mins by FRET assay relative to control

Row | Compound | inhibition
3 | CC[C@H](C)[C@H](NC(=O)c1cccc(-c2cc(Cl)ccc2Cl)c1)C(=O)NO | 68%
4 | CC[C@H](C)[C@H](NC(=O)c1cccc(-c2ccco2)c1)C(=O)NO | 58%
5 | CC(C)C[C@@H](NC(=O)c1cccc(-c2cc3ccccc3o2)c1)C(=O)NO | 58%
6 | CC[C@H](C)[C@H](NS(=O)(=O)c1cccc(-c2cccc([N+](=O)[O-])c2)c1)C(=O)NO | 34%
7 | CC(C)C[C@@H](NS(=O)(=O)c1cccc(-c2cc3ccccc3o2)c1)C(=O)NO | 86%
8 | O=C(NO)C1(NS(=O)(=O)c2cccc(-c3cc4ccccc4o3)c2)CC1 | inactive
9 | CC[C@H](C)[C@H](NS(=O)(=O)c1cccc(-c2cc(Cl)ccc2Cl)c1)C(=O)NO | 29%
10 | CC[C@H](C)[C@H](NS(=O)(=O)c1cccc(-c2c(Cl)cccc2Cl)c1)C(=O)NO | 66%
11 | CC[C@H](C)[C@H](NS(=O)(=O)c1cccc(-c2ccc(Cl)c(Cl)c2)c1)C(=O)NO | 26%
12 | CC[C@H](C)[C@H](NS(=O)(=O)c1cccc(-c2ccoc2)c1)C(=O)NO | 14%
13 | CC[C@H](C)[C@H](NS(=O)(=O)c1cccc(-c2cc3ccccc3o2)c1)C(=O)NO | 61%
14 | CC[C@H](C)[C@H](NC(=O)c1cccc(-c2cccc(Cl)c2)c1)C(=O)NO | 64%
15 | CC[C@H](C)[C@H](NS(=O)(=O)c1cccc(-c2ccco2)c1)C(=O)NO | 40%
16 | CC[C@@H](C)[C@@H](NC(=O)c1cccc(-c2cc3ccccc3o2)c1)C(=O)NO | 16%
17 | CC[C@H](C)[C@H](NC(=O)c1cccc(-c2ccccc2Cl)c1)C(=O)NO | 50%
18 | CC[C@H](C)[C@H](NS(=O)(=O)c1cccc(-c2cccc(Cl)c2)c1)C(=O)NO | 44%
19 | CC[C@H](C)[C@H](NC(=O)c1cccc(-c2cc3ccccc3o2)c1)C(=O)NO | 80%
20 | CC[C@H](C)[C@H](NS(=O)(=O)c1cccc(-c2ccccc2Cl)c1)C(=O)NO | 50%
21 | CC[C@H](C)[C@H](NS(=O)(=O)c1cccc(-c2ccc([N+](=O)[O-])cc2)c1)C(=O)NO | 41%
22 | CC[C@@H](C)[C@@H](NS(=O)(=O)c1cccc(-c2cc3ccccc3o2)c1)C(=O)NO | 94%
23 | CCCC[C@H](NS(=O)(=O)c1cccc(-c2cc3ccccc3o2)c1)C(=O)NO | 44%
24 | CC[C@H](C)[C@H](NS(=O)(=O)c1cccc(-c2ccc(Cl)cc2Cl)c1)C(=O)NO | 48%
